Series [1] concerns Pseudomonas aeruginosa. The experiment in a line: Antipseudomonal activity against Pseudomonas aeruginosa ATCC 27853 infected in ICR cutaneous abscess mouse model assessed as fold reduction in colony forming unit at 5 mg/kg,ip administered twice a day measured after 72 hrs relative to control. The series is classed as functional.
In series [2] the test system is Salmonella typhimurium. The series is described as follows: Antibacterial activity against Salmonella typhimurium ATCC 14028 assessed as inhibition of bacterial growth at pH 6.5 incubated for 24 hrs by NCCLS protocol based method. In kind it is functional, Salmonella enterica subsp. enterica serovar Typhimurium. To be noted: Salmonella enterica.
Series [3] concerns Salmonella typhimurium. The series is described as follows: Antibacterial activity against Salmonella typhimurium ATCC 14028 assessed as inhibition of bacterial growth at pH 7.4 incubated for 24 hrs by NCCLS protocol based method. In kind it is functional, Salmonella enterica subsp. enterica serovar Typhimurium. To be noted: Salmonella enterica.
Series [4] has as its system Pseudomonas aeruginosa. The series is described as follows: Antimicrobial activity against Pseudomonas aeruginosa ATCC 27853 assessed as reduction in bacterial growth at pH 6.5 in presence of NH4Cl. The series is classed as functional, organism-based.
The nature of series [5]: Hemolytic activity in human RBC assessed as hemoglobin release at pH 7.4 incubated for 1 hr. In kind it is toxicity, cell-based. To be noted: erythrocyte, pH 7.4, 1 h.
Series [6] concerns Pseudomonas aeruginosa. The experiment in a line: Induction of morphological changes in Pseudomonas aeruginosa ATCC 27853 assessed as plasma membrane collapse at 2 uM at pH 7.4 incubated for 1 hr by TEM analysis. The series is classed as functional, organism-based.
Series [7] deals with Pseudomonas aeruginosa. The series is described as follows: Antimicrobial activity against Pseudomonas aeruginosa ATCC 27853 infected in ICR cutaneous abscess mouse model assessed as reduction in necrotic tissue area in infection site at 5 mg/kg,ip administered twice a day measured after 3 days by hematoxylin and eosin staining based analysis. In kind it is functional, organism-based. To be noted: time 3.0 day.

Series [8] concerns Mus musculus. The experiment in a line: Antiinflammatory activity in ICR cutaneous abscess mouse model assessed as reduction in IL-1beta expression in serum at 5 mg/kg,ip administered twice a day measured after 72 hrs by ELISA (reference value: 9.9 +/ 0.47 10^1pg/ml). In kind it is functional. A general note: In an ELISA, binding on a coated surface is turned into a signal by an enzyme label.

Series [9] has as its system Staphylococcus aureus. The experiment in a line: Antibacterial activity against Staphylococcus aureus ATCC 25923 assessed as inhibition of bacterial growth at pH 7.4 incubated for 24 hrs by NCCLS protocol based method. The series is classed as functional.
Series [10] has as its system Escherichia coli. The experiment in a line: Antibacterial activity against Escherichia coli ATCC 25922 assessed as inhibition of bacterial growth at pH 7.4 incubated for 24 hrs by NCCLS protocol based method. The series is classed as functional.
Series [11] concerns Pseudomonas aeruginosa. The series is described as follows: Induction of morphological changes in Pseudomonas aeruginosa ATCC 27853 assessed as disruption in cell membrane at 2 uM at pH 6.5 incubated for 1 hr by SEM analysis. The series is classed as functional, organism-based.
Series [12] deals with Salmonella typhimurium. The series is described as follows: Antibacterial activity against Salmonella enterica subsp. enterica serovar Typhimurium C77-31 assessed as inhibition of bacterial growth at pH 6.5 incubated for 24 hrs by NCCLS protocol based method. The series is classed as functional.
The subject of series [13] is Staphylococcus aureus. The experiment in a line: Antibacterial activity against methicillin-resistant Staphylococcus aureus ATCC 43300 assessed as inhibition of bacterial growth at pH 7.4 incubated for 24 hrs by NCCLS protocol based method. The series is classed as functional.
Series [14] concerns Pseudomonas aeruginosa. The experiment in a line: Antipseudomonal activity against Pseudomonas aeruginosa ATCC 27853 infected in ICR cutaneous abscess mouse model assessed as fold reduction in lesion area at 5 mg/kg,ip administered twice a day measured after 72 hrs relative to control. In kind it is functional.

Activity calls are given as the source filed them. The calls are words filed in the database; no cut-off is given here. A value given as a limit tells only on which side of the number the result lay.

As usually defined, the MIC is the lowest concentration that inhibits growth of the organism.

Take H-FLEHLIPHVIHGLVHAIHH-NH2: the “fold change (FC)” value in [1] and in [14] was 10 throughout. Moreover, the minimum inhibitory concentration (MIC) is 16 µM in series [2]; above 64 µM in series [3]; above 64 µM in series [9]; above 64 µM in series [10]; 8 µM in [12]; above 64 µM in series [13]. Also, the outcome in series [4], in [7] and in [11] was Active. In addition, in [5], the MHC10 is above 128 µM. The result in series [6] was inactive. The Activity in series [8] is given as 6.93 10^1pg/ml.

Source of the values: ChEMBL document CHEMBL5046301, “pH-Responsive Antimicrobial Peptide with Selective Killing Activity for Bacterial Abscess Therapy” (J Med Chem, 2022).
